≈ marks a conversion by molar mass, not a printed value.
Key:
[1] = system: human cervix adenocarcinoma (Hela); assay: Anti-cancer activity in vitro, MTT; format: cell-based; settings: for IC50: Homo sapiens, HeLa
Experimental: (§1) In order to find out anticancer activity in vitro of the poly(organophosphazene) conjugated with anti-cancer drug of the present invention, the trial as follows was performed about the human breast adenocarcinoma (MCF-7, the Korea Cell Line Bank) and the human cervix adenocarcinoma (Hela, the Korea Cell Line Bank).
(§2) For the in vitro cell experiment, in order to measure the genesistasis concentration to 50% (IC50) toward the cancer cell of the poly(organophosphazene) conjugated with anticancer drug, the analytical method using 3-(4,5-dimethylthiazol-2-yl)-2,5-diphenyl-2H-tetrazolium bromide (MTT) was performed [T. Mosmann, J. Immunol. Method, 65, (1985) 55].
(§3) The materials for to measuring were respectively melted in the DMSO (dimethylsulfoxide) of the small amount, and they were diluted to the distilled water with 200 times. The materials solution were added to the cancer cell that is MCF-7(the Korea Cell Line Bank) and Hela (the Korea Cell Line Bank). Then, they were added to 96-well microtiter plater to 1.0×10^4 cell/ml (the concentration of the cancer cell). And they were cultivated for 2, 3, 4 days, respectively, with 37° C. in 5% CO2 condition.
(§4) MTT solution (20 μl) was mixed the cultivated cell with, and they were more cultivated for 4 hours with 37° C. in 5% CO2 condition. After the upper culture medium of each cell was removed, DMSO (100 μl) was added to a well and they were shaken in the room temperature to the plate shaker with for 20 minutes, thereby dissolving the formazan crystal generated by reducing of MTT.

[2] = system: human breast adenocarcinoma (MCF-7); assay: Anti-cancer activity in vitro, MTT; format: cell-based; settings: for IC50: Homo sapiens
Experimental: as §1, §2, §3, §4

[3] = system: Stomach cancer cells, SNU-601; assay: Anti-cancer activity in vivo of hydrogel conjugated with doxorubicin; set-up: species or system nude mouse (Balb/C)
Experimental: The anti-cancer activity in vivo of the poly(organophosphazene) hydrogel conjugated with doxorubicin prepared by the method of Example 5 was determined by the following method.
A nude mouse (OrientalBio, Balb/C, female of 5-weeks old, 20 g) was used as an animal model for animal experimentation for an in vivo test. Stomach cancer cells, SNU-601 (1×10^7 cells, 0.2 ml, the Korean Cell Line Bank), were injected into the dorsum of the mouse. A polymer solution containing the 10 wt % poly(organophosphazene)-doxorubicin conjugate of Example 5 in phosphate buffered saline (pH 7.4) was prepared. 0.1 ml and 0.2 ml of the solution was respectively injected into the cancer cells, and the change in the size of the cancer cells was measured.
When the solution is injected in an amount as much as 0.1 ml, the amount of doxorubicin injected is 30 mg per 1 kg of the mouse weight. When the solution is injected in an amount as much as 0.2 ml, the amount of doxorubicin injected is 60 mg per 1 kg of the mouse weight.
(§5) As the control group, the magnitude transition of the cancer cell into which doxorubicin was injected in the amount of 30 mg per 1 kg of the mouse weight and that to which saline is administered instead of the anti-cancer drug were measured respectively. The number of mouse used was 10 heads respectively.

stomach cancer, SNU-601 = assay: Anti-cancer activity in vivo of hydrogel conjugated with paclitaxel; set-up: species or system nude mouse (Balb/C)
Experimental: The anti-cancer activity in vivo of the poly(organophosphazene) hydrogel conjugated with paclitaxel prepared by the method of Example 1 was determined by the following method.
A nude mouse (OrientalBio, Balb/C, female of 5-weeks old, 20 g) was used as an animal model for animal experimentation for an in vivo test. Cells of stomach cancer, SNU-601 (1×10^7 cells, 0.2 ml, the Korean Cell Line Bank), were injected into the dorsum of the mouse. A polymer solution containing the 10 wt % poly(organophosphazene)-paclitaxel conjugate of Example 1 in phosphate buffered saline (pH 7.4) was prepared. 0.1 ml and 0.2 ml of the solution were respectively injected into the cancer cells, and the change in the size of the cells was measured.
When the solution is injected in an amount as much as 0.1 ml, the amount of paclitaxel injected is 10 mg per 1 kg of the mouse weight. When the solution is injected in an amount as much as 0.2 ml, the amount of paclitaxel injected is […] per 1 kg of the mouse weight.
as §5, with “which paclitaxel” for “which doxorubicin”, “of 60” for “of 30”, “that of the cancer cell into” for “that to”, “saline was” for “saline is”

[4] = Sol-gel phase transition with change of temperature (Brookfield rheometer); format: physicochemical; settings: for Gel solidity (maximum viscosity of the polymer solution) / Max. gelling temp. (temperature where the viscosity of the polymer solution reaches the maximum point): 10 wt % in phosphate buffered saline (pH 7.4)
Experimental: The poly(organophosphazene) conjugated with a drug or bioactivemolecules obtained in Examples 1 to 11 were respectively dissolved in phosphate buffered saline (pH 7.4) at 4° C. so as to make solutions with concentrations of 10 wt %. The solutions were put into a chamber of a Brookfield DV-III+ Rheometer equipped with a thermostatic bath (TC-501).

[5] = Hydrolysis of the polymer with time by GPC molecular weight; format: physicochemical; settings: 10 wt % in PBS pH 7.4, 37° C., compared among Examples 3, 4 and 9

## COc1cccc2c1C(=O)c1c(O)c3c(c(O)c1C2=O)C[C@@](O)(C(=O)CO)C[C@@H]3O[C@H]1C[C@H](N)[C@H](O)[C@H](C)O1 [doxorubicin, reference compound]
[1]; 2nd day
  IC50: 0.321 µg/mL (≈ 0.591 µM)
[1]; 3rd day
  IC50: 0.692 µg/mL (≈ 1.27 µM)
[1]; 4th day
  IC50: 0.19 µg/mL (≈ 0.35 µM)
[2]; MCF7, MCF-7, 2nd day
  IC50: 2.29 µg/mL (≈ 4.22 µM)
[2]; MCF7, MCF-7, 3rd day
  IC50: 1.69 µg/mL (≈ 3.11 µM)
[2]; MCF7, MCF-7, 4th day
  IC50: 1 µg/mL (≈ 1.85 µM)
[3]; free doxorubicin 30 mg/kg, after 14 days, 10 mice per group
  mortality due to toxicity: all of mouse died

## CC(=O)O[C@H]1C(=O)[C@@]2(C)[C@H]([C@H](OC(=O)c3ccccc3)[C@]3(O)C[C@H](OC(=O)[C@H](O)[C@@H](NC(=O)c4ccccc4)c4ccccc4)C(C)=C1C3(C)C)[C@]1(OC(C)=O)CO[C@@H]1C[C@@H]2O [paclitaxel, reference compound]
[1]; 2nd day
  IC50: 0.083 µg/mL (≈ 0.0972 µM)
[1]; 3rd day
  IC50: 0.021 µg/mL (≈ 0.0246 µM)
[1]; 4th day
  IC50: 0.014 µg/mL (≈ 0.0164 µM)
[2]; MCF7, MCF-7, 2nd day
  IC50: 0.022 µg/mL (≈ 0.0258 µM)
[2]; MCF7, MCF-7, 3rd day
  IC50: 0.006 µg/mL (≈ 0.00703 µM)
[2]; MCF7, MCF-7, 4th day
  IC50: 0.002 µg/mL (≈ 0.00234 µM)
Stomach cancer, SNU-601; 60 mg/kg, after 10 days, 10 mice per group
  mice died due to toxicity: 8 mouse heads

## poly[(isoleucineethylester)(aminomethoxypolyethyleneglycol 550)(glycylglycine)(glycylglycin)(glycylglycylglycin-arginine-glycin-asparagine-cerinicacidpeptied)phosphazene] [Example 11]
[4]
  Gel solidity (maximum viscosity of the polymer solution): 155 Pa · s
  Max. gelling temp. (temperature where the viscosity of the polymer solution reaches the maximum point): 44 °C

## poly[(isoleucineethylester)(aminomethoxypolyethyleneglycol 550)(glycylglycine)(glycylglycyldoxorubicin)phosphazene] [Example 4]
[1]; 2nd day
  Anti-cancer activity [IC50]: 1.425 µg/mL
[1]; 3rd day
  Anti-cancer activity [IC50]: 0.892 µg/mL
[1]; 4th day
  Anti-cancer activity [IC50]: 0.283 µg/mL
[2]; MCF-7, 2nd day
  Anti-cancer activity [IC50]: 2.829 µg/mL
[2]; MCF-7, 3rd day
  Anti-cancer activity [IC50]: 2.801 µg/mL
[2]; MCF-7, 4th day
  Anti-cancer activity [IC50]: 1.641 µg/mL
[4]
  Gel solidity (maximum viscosity of the polymer solution): 88 Pa · s
  Max. gelling temp. (temperature where the viscosity of the polymer solution reaches the maximum point): 37 °C

## poly[(isoleucineethylester)(aminomethoxypolyethyleneglycol 550)(glycylglycine)(glycylglycyldoxorubicin)phosphazene] [Example 5]
[3]; 0.1 ml intratumoral (doxorubicin 30 mg/kg), after 14 days
  size of the cancer cells decreased to: 68%
[3]; 0.1 ml intratumoral (doxorubicin 30 mg/kg), after 26 days
  size of the cancer cells decreased to: 173%
[3]; 0.1 ml intratumoral (doxorubicin 30 mg/kg), after 28 days
  size of the cancer cells decreased to: 168%
[3]; 0.2 ml intratumoral (doxorubicin 60 mg/kg), after 14 days
  size of the cancer cells decreased to: 155%
[3]; 0.2 ml intratumoral (doxorubicin 60 mg/kg), after 22 days
  size of the cancer cells decreased to: 195%
[3]; 0.2 ml intratumoral (doxorubicin 60 mg/kg), after 28 days
  size of the cancer cells decreased to: 182%
[3]; doxorubicin concentration of 30 mg/kg as hydrogel, 10 mice per group
  mortality: did not die
[3]; doxorubicin concentration of 60 mg/kg as hydrogel, 10 mice per group
  mortality: did not die
[4]
  Gel solidity (maximum viscosity of the polymer solution): 1477 Pa · s
  Max. gelling temp. (temperature where the viscosity of the polymer solution reaches the maximum point): 39 °C

## poly[(isoleucineethylester)(aminomethoxypolyethyleneglycol 550)(glycylglycine)(glycylglycylglycin-arginine-glycin-asparagine-cerinicacidpeptied)phosphazene] [Example 7]
[4]
  Gel solidity (maximum viscosity of the polymer solution): 145 Pa · s
  Max. gelling temp. (temperature where the viscosity of the polymer solution reaches the maximum point): 42 °C

## poly[(isoleucineethylester)(aminomethoxypolyethyleneglycol 550)(glycylglycine)(glycylglycylglycin-arginine-glycin-asparagine-cerinicacidpeptied)phosphazene] [Example 8]
[4]
  Gel solidity (maximum viscosity of the polymer solution): 318 Pa · s
  Max. gelling temp. (temperature where the viscosity of the polymer solution reaches the maximum point): 39 °C

## poly[(isoleucineethylester)(aminomethoxypolyethyleneglycol 550)(glycylglycine)(glycylglycylglycmethylester)(glycylglycylglycin-arginine-glycin-asparagine-cerinicacidpeptied)phosphazene] [Example 9]
[5]
  speed of hydrolysis (reduced molecular weight by GPC): the most quickly hydrolyzed
[4]
  Gel solidity (maximum viscosity of the polymer solution): 130 Pa · s
  Max. gelling temp. (temperature where the viscosity of the polymer solution reaches the maximum point): 46 °C
[4]; compared among Examples 3, 4 and 9
  viscosity in 37° C.: the lowest viscosity

## poly[(isoleucineethylester)(aminomethoxypolyethyleneglycol 550)(glycylglycine)(glycylglycylglycylethylester)(glycylglycylglycin-arginine-glycin-asparagine-cerinicacidpeptied)phosphazene] [Example 10]
[4]
  Gel solidity (maximum viscosity of the polymer solution): 238 Pa · s
  Max. gelling temp. (temperature where the viscosity of the polymer solution reaches the maximum point): 42 °C

## poly[(isoleucineethylester)(aminomethoxypolyethyleneglycol 550)(glycylglycine)(glycylglycylpaclitaxel)phosphazene] [Example 1]
[1]; 2nd day
  Anti-cancer activity [IC50]: 0.099 µg/mL
[1]; 3rd day
  Anti-cancer activity [IC50]: 0.057 µg/mL
[1]; 4th day
  Anti-cancer activity [IC50]: 0.022 µg/mL
[2]; MCF-7, 2nd day
  Anti-cancer activity [IC50]: 0.025 µg/mL
[2]; MCF-7, 3rd day
  Anti-cancer activity [IC50]: 0.018 µg/mL
[2]; MCF-7, 4th day
  Anti-cancer activity [IC50]: 0.003 µg/mL
[4]
  Gel solidity (maximum viscosity of the polymer solution): 128 Pa · s
  Max. gelling temp. (temperature where the viscosity of the polymer solution reaches the maximum point): 40 °C
Stomach cancer, SNU-601; 0.1 ml intratumoral (paclitaxel 10 mg/kg), after 26 days
  size of the cancer cells decreased to: 60%
Stomach cancer, SNU-601; 0.1 ml intratumoral (paclitaxel 10 mg/kg), after 34 days
  size of the cancer cells decreased to: 57%
Stomach cancer, SNU-601; 0.2 ml intratumoral (paclitaxel 30 mg/kg), after 26 days
  size of the cancer cells decreased to: 81%
Stomach cancer, SNU-601; 0.2 ml intratumoral (paclitaxel 30 mg/kg), after 34 days
  size of the cancer cells decreased to: 81%

## poly[(isoleucineethylester)(aminomethoxypolyethyleneglycol 550)(glycylglycine)(glycylglycylpaclitaxel)phosphazene] [Example 2]
[1]; 2nd day
  Anti-cancer activity [IC50]: 0.082 µg/mL
[1]; 3rd day
  Anti-cancer activity [IC50]: 0.079 µg/mL
[1]; 4th day
  Anti-cancer activity [IC50]: 0.048 µg/mL
[2]; MCF-7, 2nd day
  Anti-cancer activity [IC50]: 0.027 µg/mL
[2]; MCF-7, 3rd day
  Anti-cancer activity [IC50]: 0.021 µg/mL
[2]; MCF-7, 4th day
  Anti-cancer activity [IC50]: 0.007 µg/mL
[4]
  Gel solidity (maximum viscosity of the polymer solution): 230 Pa · s
  Max. gelling temp. (temperature where the viscosity of the polymer solution reaches the maximum point): 38 °C

## poly[(isoleucineethylester)(aminomethoxypolyethyleneglycol 750)(glycylglycine)(glycylglycyldoxorubicin)phosphazene] [Example 6]
[4]
  Gel solidity (maximum viscosity of the polymer solution): 313 Pa · s
  Max. gelling temp. (temperature where the viscosity of the polymer solution reaches the maximum point): 46 °C
